Results: patent US20250263376A1, “(E)-N-CINNAMOYLAMINOALKANOLS WITH MELANOGENESIS INHIBITORY ACTIVITY” (Uniwersytet Jagiellonski, priority 2024, published 2025)

system: B16-F10 murine melanoma cell line; assay: Cytotoxicity (MTT) in B16-F10 murine melanoma cells; assay type: cell-based; details: 150 μM, 48 h
Procedure: Cytotoxicity Assessment in the B16-F10 Murine Melanoma Cell Line (ATTC CRL-6745)—Preliminary Safety Assessment for Subsequent Studies
In order to determine safe doses of compounds for testing the inhibition of melanogenesis in a murine melanoma cell line, cytotoxicity tests were performed. Cytotoxicity was determined by the colorimetric method using MTT ([3-(4,5-dimethyl-2-thiazolyl)-2,5-diphenyl-2H-tetrazolium bromide, Sigma M5655). For this purpose, cells were transferred to 96-well plates in an amount of 5000/well. After 24 h of culture in an incubator in F10-Ham medium with 1% FBS, the tested compounds at various concentrations were added to the wells together with fresh medium. DMSO was added to the medium in a negative control. The MTT test was performed after further culture for 48 h. Then the medium was removed and the formed formazan crystals were dissolved in DMSO. The absorbance was measured at 570 nm in a plate reader and the result was compared to the control (DMSO), which was 100%. The percentage of viability was calculated using the formula: [AT/AC*100], where AT is the absorbance of the test sample, AC—absorbance of the control sample.

SMILES | Cytotoxicity study in B16F10 cells, % viability
O=C(/C=C/c1ccc(Cl)cc1)NCCCCCO [Compound A-111, (2E)-3-(4-chlorophenyl)-N-(5-hydroxypentyl)prop-2-enamide] | 88.2%
O=C(/C=C/c1ccccc1)NCCCCCO [Compound A-133, (2E)-N-(5-hydroxypentyl)-3-phenylprop-2-enamide] | 101.7%
O=C(/C=C/c1ccc(Cl)cc1)NCCCO [H-330/21, (2E)-3-(4-chlorophenyl)-N-(3-hydroxypropyl)prop-2-enamide] | 78.6%
Cc1ccc(/C=C/C(=O)NCCCCCO)cc1 [H-415/21, (2E)-N-(5-hydroxypentyl)-3-(4-methylphenyl)prop-2-enamide] | 85.2%
O=C(/C=C/c1ccccc1)NCCCCCCO [H-425/21, (E)-N-(6-hydroxyhexyl)cinnamic acid amide] | 109.2%
O=C(/C=C/c1ccc(Cl)cc1)NCCO [H-427/21, (2E)-3-(4-chlorophenyl)-N-(2-hydroxyethyl)prop-2-enamide] | 73.7%

same assay, conditions: 200 μM, 48 h

SMILES | Cytotoxicity study in B16F10 cells, % viability
O=C(/C=C/c1ccc(Cl)cc1)NCCCCCO [Compound A-111, (2E)-3-(4-chlorophenyl)-N-(5-hydroxypentyl)prop-2-enamide] | 95.6%
O=C(/C=C/c1ccccc1)NCCCCCO [Compound A-133, (2E)-N-(5-hydroxypentyl)-3-phenylprop-2-enamide] | 94.9%
O=C(/C=C/c1ccc(Cl)cc1)NCCCO [H-330/21, (2E)-3-(4-chlorophenyl)-N-(3-hydroxypropyl)prop-2-enamide] | 82.9%
Cc1ccc(/C=C/C(=O)NCCCCCO)cc1 [H-415/21, (2E)-N-(5-hydroxypentyl)-3-(4-methylphenyl)prop-2-enamide] | 90.3%
O=C(/C=C/c1ccccc1)NCCCCCCO [H-425/21, (E)-N-(6-hydroxyhexyl)cinnamic acid amide] | 98.4%
O=C(/C=C/c1ccc(Cl)cc1)NCCO [H-427/21, (2E)-3-(4-chlorophenyl)-N-(2-hydroxyethyl)prop-2-enamide] | 80.2%

same assay, conditions: 250 μM, 48 h

SMILES | Cytotoxicity study in B16F10 cells, % viability
O=C(/C=C/c1ccc(Cl)cc1)NCCCCCO [Compound A-111, (2E)-3-(4-chlorophenyl)-N-(5-hydroxypentyl)prop-2-enamide] | 89.7%
O=C(/C=C/c1ccccc1)NCCCCCO [Compound A-133, (2E)-N-(5-hydroxypentyl)-3-phenylprop-2-enamide] | 95.6%
O=C(/C=C/c1ccc(Cl)cc1)NCCCO [H-330/21, (2E)-3-(4-chlorophenyl)-N-(3-hydroxypropyl)prop-2-enamide] | 83.9%
Cc1ccc(/C=C/C(=O)NCCCCCO)cc1 [H-415/21, (2E)-N-(5-hydroxypentyl)-3-(4-methylphenyl)prop-2-enamide] | 75.7%
O=C(/C=C/c1ccccc1)NCCCCCCO [H-425/21, (E)-N-(6-hydroxyhexyl)cinnamic acid amide] | 86.9%
O=C(/C=C/c1ccc(Cl)cc1)NCCO [H-427/21, (2E)-3-(4-chlorophenyl)-N-(2-hydroxyethyl)prop-2-enamide] | 77.8%

target: T1, tyrosinase from mushroom (Agaricus bisporus, UniProt C7FF04); assay: Inhibition of commercial mushroom tyrosinase, substrate L-DOPA; assay type: biochemical; details: 500 μM; read-out: Tyrosinase inhibition with L-DOPA [%]
T1 sequence (C7FF04 2-392): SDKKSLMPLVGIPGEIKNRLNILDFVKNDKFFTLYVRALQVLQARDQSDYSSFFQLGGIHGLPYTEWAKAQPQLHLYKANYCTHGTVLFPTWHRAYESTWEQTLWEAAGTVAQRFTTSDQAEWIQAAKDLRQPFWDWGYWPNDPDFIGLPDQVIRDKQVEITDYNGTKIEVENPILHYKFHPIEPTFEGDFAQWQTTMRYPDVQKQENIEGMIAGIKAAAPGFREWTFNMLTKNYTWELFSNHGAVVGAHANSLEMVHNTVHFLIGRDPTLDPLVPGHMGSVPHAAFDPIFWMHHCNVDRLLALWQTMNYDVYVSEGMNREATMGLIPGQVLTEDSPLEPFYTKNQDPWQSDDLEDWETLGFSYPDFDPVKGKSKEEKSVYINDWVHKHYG
T1 sequence (G1K3P4 entry or part of it, further chain): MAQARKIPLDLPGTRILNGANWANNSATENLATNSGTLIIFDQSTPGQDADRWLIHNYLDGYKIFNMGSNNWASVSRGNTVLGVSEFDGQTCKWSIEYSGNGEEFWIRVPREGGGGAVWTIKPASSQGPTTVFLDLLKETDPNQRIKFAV
Procedure: (§1) Studies on the Inhibition of the Activity of Commercial Tyrosinase from Mushroom (Sigma: T3824)
(§2) The following substrates were used for the enzymatic reaction: L-tyrosine and L-3,4-dihyroxyphenylalanine (L-DOPA). Both substrates were used in independent experiments. According to the literature, the use of L-DOPA enables the assessment of tyrosinase diphenolase activity, and L-tyrosine—the tyrosinase monophenolase activity. The determinations were performed in 96-well plates, in each well there was placed: 170 μL or 127.5 μL of 50 mM phosphate buffer (pH=6.8) with tyrosinase (1U/well or 3U/well) and 10 μL of a solution of the tested compound in DMSO (the final concentration in the well was 500 μM, 250 μM or 125 μM). The negative control used 10 u L of pure solvent (DMSO). To initiate the reaction, an appropriate substrate was added: L-tyrosine (62.5 μL of solution in phosphate buffer) or L-DOPA (20 μL of solution in phosphate buffer). After a 25-minute incubation, the absorbance was measured at 475 nm using a microplate reader. The percentage of inhibition of tyrosinase activity was calculated using the formula: [(AC−AT)/[…], where AC—is the absorbance of the negative control, AT—is the absorbance of the sample containing the tested compound.

SMILES | inhibition at 500 µM
O=C(/C=C/c1ccc(Cl)cc1)NCCCO [H-330/21, (2E)-3-(4-chlorophenyl)-N-(3-hydroxypropyl)prop-2-enamide] | 55.3 ± 1.39%
O=C(/C=C/c1ccccc1)NCCCCCCO [H-425/21, (E)-N-(6-hydroxyhexyl)cinnamic acid amide] | 34.6 ± 2.46%
O=C(/C=C/c1ccc(Cl)cc1)NCCO [H-427/21, (2E)-3-(4-chlorophenyl)-N-(2-hydroxyethyl)prop-2-enamide] | 55.8 ± 0.77%

same assay, conditions: read-out: Tyrosinase inhibition with L-DOPA [%]

SMILES | inhibition at 250 µM | inhibition at 500 µM
O=C(/C=C/c1ccc(Cl)cc1)NCCCCCO [Compound A-111, (2E)-3-(4-chlorophenyl)-N-(5-hydroxypentyl)prop-2-enamide] | 59.9 ± 1.56% | 
O=C(/C=C/c1ccccc1)NCCCCCO [Compound A-133, (2E)-N-(5-hydroxypentyl)-3-phenylprop-2-enamide] |  | 48 ± 1.83%
Cc1ccc(/C=C/C(=O)NCCCCCO)cc1 [H-415/21, (2E)-N-(5-hydroxypentyl)-3-(4-methylphenyl)prop-2-enamide] |  | 30.4 ± 0.88%

target: T1, tyrosinase from mushroom; assay: Inhibition of commercial mushroom tyrosinase, substrate L-tyrosine; assay type: biochemical; details: 500 μM; read-out: Tyrosinase inhibition with L-tyrosine [%]
Procedure: as §1, §2

SMILES | inhibition at 500 µM
O=C(/C=C/c1ccc(Cl)cc1)NCCCO [H-330/21, (2E)-3-(4-chlorophenyl)-N-(3-hydroxypropyl)prop-2-enamide] | 82.49 ± 0.65%
O=C(/C=C/c1ccccc1)NCCCCCCO [H-425/21, (E)-N-(6-hydroxyhexyl)cinnamic acid amide] | 44.6 ± 5.99%
O=C(/C=C/c1ccc(Cl)cc1)NCCO [H-427/21, (2E)-3-(4-chlorophenyl)-N-(2-hydroxyethyl)prop-2-enamide] | 67.5 ± 2.66%

same assay, conditions: read-out: Tyrosinase inhibition with L-tyrosine [%]

SMILES | inhibition at 500 µM
O=C(/C=C/c1ccc(Cl)cc1)NCCCCCO [Compound A-111, (2E)-3-(4-chlorophenyl)-N-(5-hydroxypentyl)prop-2-enamide] | 89 ± 0.98%
O=C(/C=C/c1ccccc1)NCCCCCO [Compound A-133, (2E)-N-(5-hydroxypentyl)-3-phenylprop-2-enamide] | 58.6 ± 4.58%
Cc1ccc(/C=C/C(=O)NCCCCCO)cc1 [H-415/21, (2E)-N-(5-hydroxypentyl)-3-(4-methylphenyl)prop-2-enamide] | 25 ± 5.67%

system: not listed separately; assay: Lipophilicity coefficient RM0 by reversed phase thin layer chromatography; assay type: physicochemical; details: RP-18 TLC, methanol/phosphate buffer pH=7.4
Procedure: Confirmation of the identity and purity of the obtained compounds consisted in the registration and interpretation of 1H NMR and 13C NMR spectra (the spectra were recorded using an ECZR 500 MHZ (JEOL) series FT-NMR spectrophotometer), as well as the registration and interpretation of LC-MS spectra (the spectra were recorded using Acquita UPLC system (Waters) coupled with a Waters TQD mass spectrometer). The melting point was measured using the open capillary method in the IA9300 device (Electrothermal). The lipophilicity coefficient RM0 was determined by reversed phase thin layer chromatography. In the study, aluminum plates 20×20 cm covered with modified silica gel RP-18 F254 (Merck) were used as the solid phase. The mobile phase consisted of solutions of methanol and 100 mM phosphate buffer (pH=7.4), characterized by a variable methanol content ranging from 95 to 65% (v/v). The tested compounds were dissolved in methanol to obtain solutions with a concentration of 1 mg/mL. Then, […] of the solutions prepared in this way were transferred to the starting line on aluminum plates, which were then placed in chromatographic chambers previously saturated with mobile phase vapors for at least 1 hour. All activities, including the development of chromatograms, were carried out at room temperature. After developing the chromatograms to approximately 1-2 cm from the end of the plate, the plates were dried and then the distance traveled by the tested compounds was visualized under UV light (λ=254 nm). The experiment was performed in duplicate for the specified conditions. For all samples, Rf was calculated according to the formula Rf=a/b, where a—the distance traveled by the tested compound, b—the distance traveled by the mobile phase. Then, the RM parameter was calculated for all samples according to the formula RM=log (1/Rf−1), obtaining a linear relationship between the RM values and the methanol concentration in the mobile phase. The log P coefficient was also calculated using the following computer programs: ACD/ChemSketch 2020.1.2 and ChemDraw 20.0.0.41.

SMILES | RM0
O=C(/C=C/c1ccc(Cl)cc1)NCCCCCO [Compound A-111, (2E)-3-(4-chlorophenyl)-N-(5-hydroxypentyl)prop-2-enamide] | 2.79
O=C(/C=C/c1ccccc1)NCCCCCO [Compound A-133, (2E)-N-(5-hydroxypentyl)-3-phenylprop-2-enamide] | 2.15
O=C(/C=C/c1ccc(Cl)cc1)NCCCO [H-330/21, (2E)-3-(4-chlorophenyl)-N-(3-hydroxypropyl)prop-2-enamide] | 1.94
Cc1ccc(/C=C/C(=O)NCCCCCO)cc1 [H-415/21, (2E)-N-(5-hydroxypentyl)-3-(4-methylphenyl)prop-2-enamide] | 2.49
O=C(/C=C/c1ccccc1)NCCCCCCO [H-425/21, (E)-N-(6-hydroxyhexyl)cinnamic acid amide] | 2.40
O=C(/C=C/c1ccc(Cl)cc1)NCCO [H-427/21, (2E)-3-(4-chlorophenyl)-N-(2-hydroxyethyl)prop-2-enamide] | 1.93

system: E. coli WP2; assay: Ames microplate test, E. coli WP2; details: 0.5 mM, + S9;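 also: bacteria exposed to compound for 90 min at 37 °C in 24-well plates, then transferred with indicator medium to 384-well plates and incubated 48 h before yellow well counting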
Procedure: The study used the Ames microplate test (Ames MPF™ Penta 2 by Xenometrix, Allschwil, Switzerland). Growth medium, exposure medium, indicator medium, positive controls, hepatic microsomal fraction, NADP, glucose-6-phosphate, Salmonella typhimurium and Escherichia coli strains were components of the purchased experimental kit. Bacteria were grown overnight in growth medium. They were then exposed to the test compound at the appropriate concentration in exposure medium without or with the rat microsomal fraction S9 in 24-well plates for 90 min at 37° C. with shaking. Then, indicator medium was added to the wells and pipetted into 384-well plates, which were incubated for 48 hours at 37° C. without shaking. Results were assessed by counting the wells in which the medium turned yellow for each experimental condition.

SMILES | Increase in the number of yellow wells compared to the reference level, E. coli WP2
O=C(/C=C/c1ccc(Cl)cc1)NCCCCCO [Compound A-111, (2E)-3-(4-chlorophenyl)-N-(5-hydroxypentyl)prop-2-enamide] | 0.62
O=C(/C=C/c1ccccc1)NCCCCCO [Compound A-133, (2E)-N-(5-hydroxypentyl)-3-phenylprop-2-enamide] | 0.27
O=C(/C=C/c1ccccc1)NCCCCCCO [H-425/21, (E)-N-(6-hydroxyhexyl)cinnamic acid amide] | 0.75

same assay, conditions: 0.5 mM, without S9

SMILES | Increase in the number of yellow wells compared to the reference level, E. coli WP2
O=C(/C=C/c1ccc(Cl)cc1)NCCCCCO [Compound A-111, (2E)-3-(4-chlorophenyl)-N-(5-hydroxypentyl)prop-2-enamide] | 1.46
O=C(/C=C/c1ccccc1)NCCCCCO [Compound A-133, (2E)-N-(5-hydroxypentyl)-3-phenylprop-2-enamide] | 0.73
Cc1ccc(/C=C/C(=O)NCCCCCO)cc1 [H-415/21, (2E)-N-(5-hydroxypentyl)-3-(4-methylphenyl)prop-2-enamide] | 0.64
O=C(/C=C/c1ccccc1)NCCCCCCO [H-425/21, (E)-N-(6-hydroxyhexyl)cinnamic acid amide] | 0.17

same assay, conditions: 1.0 mM, + S9

SMILES | Increase in the number of yellow wells compared to the reference level, E. coli WP2
O=C(/C=C/c1ccc(Cl)cc1)NCCCCCO [Compound A-111, (2E)-3-(4-chlorophenyl)-N-(5-hydroxypentyl)prop-2-enamide] | 0.71
O=C(/C=C/c1ccccc1)NCCCCCO [Compound A-133, (2E)-N-(5-hydroxypentyl)-3-phenylprop-2-enamide] | 0.44
O=C(/C=C/c1ccccc1)NCCCCCCO [H-425/21, (E)-N-(6-hydroxyhexyl)cinnamic acid amide] | 0.83

same assay, conditions: 1.0 mM, without S9

SMILES | Increase in the number of yellow wells compared to the reference level, E. coli WP2
O=C(/C=C/c1ccc(Cl)cc1)NCCCCCO [Compound A-111, (2E)-3-(4-chlorophenyl)-N-(5-hydroxypentyl)prop-2-enamide] | 1.10
O=C(/C=C/c1ccccc1)NCCCCCO [Compound A-133, (2E)-N-(5-hydroxypentyl)-3-phenylprop-2-enamide] | 0.37
Cc1ccc(/C=C/C(=O)NCCCCCO)cc1 [H-415/21, (2E)-N-(5-hydroxypentyl)-3-(4-methylphenyl)prop-2-enamide] | 0.40
O=C(/C=C/c1ccccc1)NCCCCCCO [H-425/21, (E)-N-(6-hydroxyhexyl)cinnamic acid amide] | 0.67

same assay, conditions: 2.0 mM, + S9

SMILES | Increase in the number of yellow wells compared to the reference level, E. coli WP2
O=C(/C=C/c1ccc(Cl)cc1)NCCCCCO [Compound A-111, (2E)-3-(4-chlorophenyl)-N-(5-hydroxypentyl)prop-2-enamide] | 0.98
O=C(/C=C/c1ccccc1)NCCCCCO [Compound A-133, (2E)-N-(5-hydroxypentyl)-3-phenylprop-2-enamide] | 0.53
O=C(/C=C/c1ccccc1)NCCCCCCO [H-425/21, (E)-N-(6-hydroxyhexyl)cinnamic acid amide] | 0.75

same assay, conditions: 2.0 mM, without S9

SMILES | Increase in the number of yellow wells compared to the reference level, E. coli WP2
O=C(/C=C/c1ccc(Cl)cc1)NCCCCCO [Compound A-111, (2E)-3-(4-chlorophenyl)-N-(5-hydroxypentyl)prop-2-enamide] | 1.10
O=C(/C=C/c1ccccc1)NCCCCCO [Compound A-133, (2E)-N-(5-hydroxypentyl)-3-phenylprop-2-enamide] | 1.10
Cc1ccc(/C=C/C(=O)NCCCCCO)cc1 [H-415/21, (2E)-N-(5-hydroxypentyl)-3-(4-methylphenyl)prop-2-enamide] | 0.95
O=C(/C=C/c1ccccc1)NCCCCCCO [H-425/21, (E)-N-(6-hydroxyhexyl)cinnamic acid amide] | 1.00
